Reference: patent US20190111158A1, “INJECTION COMPOSITION FOR LABELING LESION” (NATIONAL CANCER CENTER, priority 2016, published 2019)

Tests used:
[1] = cited from earlier work
[2] = near-infrared fluorescence signal intensity of ICG-MAA complexes at various ICG/MAA mixing ratios; format: physicochemical; details: for near-infrared fluorescence signal intensity: MAA 0 mg/mL

## CC1(C)C(/C=C/C=C/C=C/C=C2\N(CCCCS(=O)(=O)O)c3ccc4ccccc4c3C2(C)C)=[N+](CCCCS(=O)(=O)[O-])c2ccc3ccccc3c21 [ICG, indocyanine green]
[1]; 18 breast cancer patients (T. Kitai, et al., Breast Cancer, 12:211-215, 2005)
  clinical safety: safe clinical use
[1]; human body
  elimination after injection into the human body: decomposed and disappears or is excreted in the urine or feces within an hour
[2]; ICG 1.3 (μN)
  near-infrared fluorescence signal intensity: 18
[2]; ICG 3.9 (μN)
  near-infrared fluorescence signal intensity: 120
[2]; ICG 6.5 (μN)
  near-infrared fluorescence signal intensity: 212
[2]; ICG 9.0 (μN)
  near-infrared fluorescence signal intensity: 289
[2]; ICG 12.9 (μN)
  near-infrared fluorescence signal intensity: 363
[2]; ICG 25.8 (μN)
  near-infrared fluorescence signal intensity: 466
[2]; ICG 38.7 (μN)
  near-infrared fluorescence signal intensity: 425
[2]; ICG 51.6 (μN)
  near-infrared fluorescence signal intensity: 399
[2]; ICG 64.5 (μN)
  near-infrared fluorescence signal intensity: 374
[2]; ICG 77.4 (μN)
  near-infrared fluorescence signal intensity: 332
[2]; ICG 103 (μN)
  near-infrared fluorescence signal intensity: 289
[2]; ICG 258 (μN)
  near-infrared fluorescence signal intensity: 139
[2]; ICG 516 (μN)
  near-infrared fluorescence signal intensity: 71
[2]; ICG 774 (μN)
  near-infrared fluorescence signal intensity: 39
[2]; ICG 1032 (μN)
  near-infrared fluorescence signal intensity: 30
[2]; MAA was not treated
  ICG concentration with the highest value of near-infrared fluorescence signal intensity: 25.8 µM
